Source: PubChem BioAssay AID248 (DTP/NCI, 2004)
Values joined by “and” are separate entries in the source; they are usually repeats but may differ in a detail not shown here. Identical values can stand only once. Inconclusive results and toxic doses are left out. Cut-off read from the data, not from the text of the source: active = T/C of 150% or more; inactive = T/C below 125%.

System: L1210 leukemia ip in BDF1 mice, survival T/C
Assay: NCI In Vivo Anticancer Drug Screen. Data for tumor model L1210 Leukemia (intraperitoneal) in B6D2F1 (BDF1) mice
Details: endpoint: mean survival time, higher = longer survival
Procedure, shortened: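 Ratio derived from survival: compound-dosed mice over vehicle-dosed mice, all bearing a transplantable tumor.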

[1] = dose: 25.0 mg/kg/injection, schedule: Q04DX003 (ip), vehicle: Klucel (hydroxypropylcellulose) (HPC)
[2] = dose: 50.0 mg/kg/injection, schedule: Q04DX003 (ip), vehicle: Klucel (hydroxypropylcellulose) (HPC)
[3] = dose: 100.0 mg/kg/injection, schedule: Q04DX003 (ip), vehicle: Klucel (hydroxypropylcellulose) (HPC)
[4] = dose: 12.5 mg/kg/injection, schedule: Q04DX003 (ip), vehicle: Klucel (hydroxypropylcellulose) (HPC)
[5] = dose: 100.0 mg/kg/injection, schedule: Q04DX003 (ip), vehicle: saline
[6] = dose: 200.0 mg/kg/injection, schedule: Q04DX003 (ip), vehicle: saline
[7] = dose: 100.0 mg/kg/injection, schedule: Q01DX009 (ip), vehicle: Klucel (hydroxypropylcellulose) (HPC)
[8] = dose: 200.0 mg/kg/injection, schedule: Q01DX009 (ip), vehicle: Klucel (hydroxypropylcellulose) (HPC)
[9] = dose: 200.0 mg/kg/injection, schedule: Q04DX003 (ip), vehicle: Klucel (hydroxypropylcellulose) (HPC)
[10] = dose: 400.0 mg/kg/injection, schedule: Q04DX003 (ip), vehicle: Klucel (hydroxypropylcellulose) (HPC)
[11] = dose: 400.0 mg/kg/injection, schedule: Q01DX009 (ip), vehicle: Klucel (hydroxypropylcellulose) (HPC)
[12] = dose: 100.0 mg/kg/injection, schedule: Q01DX009 (ip), vehicle: saline
[13] = dose: 200.0 mg/kg/injection, schedule: Q01DX009 (ip), vehicle: saline
[14] = dose: 400.0 mg/kg/injection, schedule: Q01DX009 (ip), vehicle: saline

Measured: T/C

O=C(O)c1ccccc1C(=O)Nc1ccc(O)cc1
inactive: dose: 75.0 mg/kg/injection, schedule: Q01DX009 (ip), vehicle: saline 102 % of control | dose: 150.0 mg/kg/injection, schedule: Q01DX009 (ip), vehicle: saline 100 % of control | dose: 300.0 mg/kg/injection, schedule: Q01DX009 (ip), vehicle: saline 117 % of control

COc1ccccc1N=Nc1c(O)n(-c2ccccc2C)c(=S)n(-c2ccccc2OC)c1=O
inactive: [1] 98 % of control | [2] 98 % of control | dose: 100.0 mg/kg/injection, schedule: Q01DX001 (ip), vehicle: Klucel (hydroxypropylcellulose) (HPC) 109 % of control | [3] 91 % of control | dose: 200.0 mg/kg/injection, schedule: Q01DX001 (ip), vehicle: Klucel (hydroxypropylcellulose) (HPC) 98 % of control

COc1cc2c(cc1OC)C(C)=[N+](C)CC2
inactive: [4] 101 % of control | [1] 103 % of control | [2] 106 % of control

NC(=O)c1cccc[n+]1Cc1cc(=O)[nH]c(=O)[nH]1
inactive: [5] 93 % of control | [6] 101 % of control | dose: 400.0 mg/kg/injection, schedule: Q04DX003 (ip), vehicle: saline 89 % of control

N=C(N)SCc1ccccc1Cl
inactive: dose: 3.13 mg/kg/injection, schedule: Q01DX009 (ip), vehicle: saline 96 % of control | dose: 3.13 mg/kg/injection, schedule: Q04DX002 (ip), vehicle: saline 102 % of control | dose: 6.25 mg/kg/injection, schedule: Q01DX009 (ip), vehicle: saline 98 % of control | dose: 6.25 mg/kg/injection, schedule: Q04DX002 (ip), vehicle: saline 102 % of control | dose: 12.5 mg/kg/injection, schedule: Q01DX009 (ip), vehicle: saline 96 % of control | dose: 12.5 mg/kg/injection, schedule: Q04DX002 (ip), vehicle: saline 91 % of control | dose: 25.0 mg/kg/injection, schedule: Q01DX009 (ip), vehicle: saline 96 % of control | dose: 25.0 mg/kg/injection, schedule: Q04DX002 (ip), vehicle: saline 97 % of control and 98 % of control | dose: 50.0 mg/kg/injection, schedule: Q04DX002 (ip), vehicle: saline 94 % of control

O=C(NCCc1ccccc1)C(Cl)Cl
inactive: dose: 50.0 mg/kg/injection, schedule: Q01DX009 (ip), vehicle: Klucel (hydroxypropylcellulose) (HPC) 93 % of control | [7] 93 % of control | [3] 103 % of control | [8] 94 % of control | [9] 95 % of control | [10] 101 % of control

CCOC(CCC#N)c1ccc(C)cc1 (stereo not given)
inactive: dose: 100.0 mg/kg/injection, schedule: Q04DX003 (ip), vehicle: saline with Tween-80 113 % of control | dose: 118.0 mg/kg/injection, schedule: Q01DX009 (ip), vehicle: saline with Tween-80 108 % of control | dose: 200.0 mg/kg/injection, schedule: Q04DX003 (ip), vehicle: saline with Tween-80 98 % of control | dose: 235.0 mg/kg/injection, schedule: Q01DX009 (ip), vehicle: saline with Tween-80 97 % of control | dose: 400.0 mg/kg/injection, schedule: Q04DX003 (ip), vehicle: saline with Tween-80 95 % of control

CCCCCCCCCc1cc(=O)n(-c2ccc(C(=O)OCC)cc2)n1C
inactive: [4] 105 % of control | [1] 102 % of control | [2] 97 % of control

CCOc1ccc(/C=C\C(=O)O)cc1
inactive: [7] 97 % of control | [8] 102 % of control | [11] 107 % of control

O=C(NC(=S)Nc1ccccc1Cl)c1ccccc1
inactive: [3] 94 % of control | [9] 96 % of control | [10] 97 % of control

COc1ccc(Nc2ccc3c4c(cccc24)C(=O)N(c2ccc(OC)cc2)C3=O)cc1
inactive: dose: 100.0 mg/kg/injection, schedule: Q04DX002 (ip), vehicle: saline with Tween-80 92 % of control | dose: 200.0 mg/kg/injection, schedule: Q04DX002 (ip), vehicle: saline with Tween-80 95 % of control | dose: 400.0 mg/kg/injection, schedule: Q04DX002 (ip), vehicle: saline with Tween-80 92 % of control

CCOc1cccc(OCC)c1C
inactive: [3] 97 % of control | [9] 94 % of control | [10] 101 % of control

CCCCSCC(N)CO (stereo not given)
inactive: [5] 101 % of control | [6] 101 % of control

ClC(Cl)(Cl)C(Cl)(Cl)c1ccc(C(Cl)(Cl)C(Cl)(Cl)Cl)cc1
inactive: dose: 100.0 mg/kg/injection, schedule: Q01DX009 (ip), vehicle: saline sonified 95 % of control | [3] 89 % of control | dose: 200.0 mg/kg/injection, schedule: Q01DX009 (ip), vehicle: saline sonified 94 % of control | [9] 94 % of control | dose: 400.0 mg/kg/injection, schedule: Q01DX009 (ip), vehicle: saline sonified 94 % of control | [10] 96 % of control

C#CC(C)(C)CC
inactive: [12] 111 % of control | [13] 97 % of control | [14] 122 % of control

Cc1cc([N+](=O)[O-])ccc1NC(=O)Nc1ccccc1F
inactive: dose: 100.0 mg/kg/injection, schedule: Q01DX009 (ip), vehicle: saline with Tween-80 102 % of control | dose: 200.0 mg/kg/injection, schedule: Q01DX009 (ip), vehicle: saline with Tween-80 86 % of control | dose: 400.0 mg/kg/injection, schedule: Q01DX009 (ip), vehicle: saline with Tween-80 96 % of control

C[N+](C)(CCN1C(=O)c2ccc3c4c(ccc(c24)C1=O)C(=O)N(CC[N+](C)(C)Cc1ccccc1)C3=O)Cc1ccccc1
inactive: dose: 0.1 mg/kg/injection, schedule: Q01DX001 (ip), vehicle: saline 105 % of control | dose: 0.2 mg/kg/injection, schedule: Q01DX001 (ip), vehicle: saline 101 % of control | dose: 0.4 mg/kg/injection, schedule: Q01DX001 (ip), vehicle: saline 110 % of control | dose: 0.78 mg/kg/injection, schedule: Q01DX001 (ip), vehicle: saline 106 % of control

ON(Cc1ccccc1)Cc1ccccc1
inactive: [7] 98 % of control | [3] 103 % of control | [8] 107 % of control | [9] 102 % of control | [11] 98 % of control | [10] 100 % of control

Cc1[nH]c(=O)[nH]c(=O)c1/C=C/C(=O)O
inactive: dose: 100.0 mg/kg/injection, schedule: Q01DX001 (ip), vehicle: saline 97 % of control | [12] 108 % of control | dose: 200.0 mg/kg/injection, schedule: Q01DX001 (ip), vehicle: saline 100 % of control | [13] 102 % of control | dose: 400.0 mg/kg/injection, schedule: Q01DX001 (ip), vehicle: saline 97 % of control | [14] 106 % of control

CC=NCc1ccccc1
inactive: dose: 50.0 mg/kg/injection, schedule: Q01DX009 (sc), vehicle: olive oil, sesame oil, peanut oil 98 % of control | dose: 100.0 mg/kg/injection, schedule: Q01DX009 (sc), vehicle: olive oil, sesame oil, peanut oil 114 % of control | dose: 100.0 mg/kg/injection, schedule: Q04DX003 (sc), vehicle: olive oil, sesame oil, peanut oil 105 % of control | dose: 200.0 mg/kg/injection, schedule: Q04DX003 (sc), vehicle: olive oil, sesame oil, peanut oil 98 % of control

COc1cc2c3c(c1)C(=O)CCN3CCC2
inactive: [3] 93 % of control | [9] 93 % of control
